Tests used:
[1] = tested on: naive rats (Wistar); details: 5 mg/kg, only after 7 days of treatment; cited from earlier work
[2] = tested on: naive rats (Wistar); test: Fear conditioning + extinction + stabilization (PTSD model); format: in vivo, rat; details: for Percentage of time of tetany (freezing) during the stabilization phase: 10 mg/kg
Source text: Several animal models have been developed to mimic the traumatic events that induce intense and recurrent fear symptoms characteristic of PTSD. • Pavlovian fear conditioning of the animals: This animal model consists of Pavlovian-type fear conditioning (Zovkic, Neuropsychopharmacology Reviews (2013) 38, 77-93): mice (or rats) are trained to associate exposure to danger (electric shock, etc.) with the presence of a specific cue or environment (sound cue for example). The memory of this association (danger-cue) is later tested by measuring tetany behavior (through fear) when the animal is re-exposed to the conditioning cue in the absence of real danger.
Again, the occurrence of symptoms of PTSD are assessed after a certain period of time, without exposure to the hazard, to simulate the long-term onset of PTSD pathology. • Fear extinction: After a fear conditioning as described above it can be of interest to apply a protocol to extinguish this fear. Classically, this phase is placed 24 hours after the conditioning phase.
The extinction protocols model the relearning of the normal (non-fear-motivated) response to the cue (sound) and are very useful in modeling PTSD. • Fear stabilization: It can be useful, to assess the performance of a treatment, to add a stabilization phase after the extinction phase, spaced 24 h apart. Typically, this phase puts the animals back under the extinction phase conditions. It then allows the detection of staggered performances of the treatments, but also of the resurgence of tetany (rebound effect).
In the following examples, the effects of memantine, propranolol and fluoroethylnormemantine (FENM, the subject of the present invention) are studied in naive rats (Wistar) subjected to various tests related to depression or anxiety and then compared.
The test substances are administered to rats intraperitoneally in a volume of 5 ml/kg, 30 minutes before the behavioral tests are performed.
The injected solutions contain either of the molecules in the form of one of their salts, a hydrochloride (memantine·HCl and FENM·HCl) for the nitrogen derivatives and as such for propranolol, at the concentrations indicated below in a mixture of 95% (NaCl 0.9% ww in water)/5% ethanol. In each experiment, the dose per kilogram is referenced.
The applicant used a fear conditioning test in which the clue (neutral conditional stimulus) is a sound, coupled with a danger (aversive unconditional stimulus) which is an electric shock delivered by the floor of the box. This conditioning is followed by a fear extinction phase with injection of the treatment solutions to be tested and then by a test phase itself. • Fear Conditioning Phase (FC): fear conditioning takes place in a standard conditioning box (context A, white box in Table 7) and the rats (8 per group) are subjected to 3 “sound-electroshock” pairs at times of 180 s, 381 s and 582 s after being placed in the box. Each sound lasts 20 s and each electroshock lasts 1 s with a current of 1 mA. • The fear extinction phase (Ext.) is conducted as follows: the rats are placed in a box similar to the one that will be used for the final test (context B, pink box in Table 7), for a 25-minute session. During this session, 24 presentations are made with the same sound as that used during the conditioning session (20 s each, 35 s apart). Of course, no electric shock is delivered, and the percentage of time of tetany (“freezing”) during the phase is recorded. • Stabilization phase: the day after the extinction phase, 30 minutes before the test phase, […] of 3 sounds (same sequence as used for conditioning), recording the percentage of time they remain still during this test phase. […]

Row | SMILES | anxiolytic activity (light-dark box, for comparison) [1] | Percentage of time of tetany (freezing) during the stabilization phase ([2]; Early treatment: one injection 30 minutes before the extinction phase) | Percentage of time of tetany (freezing) during the stabilization phase ([2]; Late treatment: one injection 30 minutes before the stabilization phase) | Percentage of time of tetany (freezing) during the stabilization phase ([2]; Protective effect: one injection 30 minutes before the conditioning phase) | tetany in the stabilization phase compared with control ([2]; administered at conditioning, early or late post-traumatic treatment) | tetany during the extinction phase ([2]; administered during the extinction phase, effect lost during the stabilization phase)
1 | CNCCC(Oc1ccc(C(F)(F)F)cc1)c1ccccc1 (stereo not drawn) [fluoxetine] | anxiolytic activity | – | – | – | – | –
2 | CC(C)NCC(O)COc1cccc2ccccc12 (stereo not drawn) [Propranolol, propranolol, reference compound] | – | 26% | 29% | 28% | does not differentiate from the control | reduces tetany

— US11464751B2, “Use of fluoroethylnormemantine for the prevention and treatment of anxiety” (REST THERAPEUTICS, priority 2017, dated 2022)
